pIC50: −log10 of the molar value.
Assays:
[1] = target: T1, rat liver TrxR1 (cytosolic thioredoxin reductase) (Rattus norvegicus, UniProt O89049); experiment: DTNB reduction, absorbance […] nm; assay type: biochemical
T1 sequence (O89049 1-499): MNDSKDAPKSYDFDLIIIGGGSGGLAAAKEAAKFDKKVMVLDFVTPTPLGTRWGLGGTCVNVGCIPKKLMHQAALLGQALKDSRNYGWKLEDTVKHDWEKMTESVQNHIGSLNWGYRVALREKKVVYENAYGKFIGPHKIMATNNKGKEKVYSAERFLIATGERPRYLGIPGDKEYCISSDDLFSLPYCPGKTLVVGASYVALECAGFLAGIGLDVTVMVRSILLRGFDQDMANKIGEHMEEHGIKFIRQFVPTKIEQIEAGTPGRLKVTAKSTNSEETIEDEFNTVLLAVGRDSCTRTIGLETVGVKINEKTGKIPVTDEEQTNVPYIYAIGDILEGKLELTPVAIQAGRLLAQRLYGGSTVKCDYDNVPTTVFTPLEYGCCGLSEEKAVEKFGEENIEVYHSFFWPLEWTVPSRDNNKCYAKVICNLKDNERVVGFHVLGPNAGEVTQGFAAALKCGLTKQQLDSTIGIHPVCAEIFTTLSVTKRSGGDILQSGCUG

[2] = target: rat liver TrxR2 (mitochondrial thioredoxin reductase) (Rattus norvegicus, UniProt Q9Z0J5); experiment: DTNB reduction, absorbance […] nm; assay type: biochemical
Sequence of rat liver TrxR2 (mitochondrial thioredoxin reductase) (Q9Z0J5 37-526): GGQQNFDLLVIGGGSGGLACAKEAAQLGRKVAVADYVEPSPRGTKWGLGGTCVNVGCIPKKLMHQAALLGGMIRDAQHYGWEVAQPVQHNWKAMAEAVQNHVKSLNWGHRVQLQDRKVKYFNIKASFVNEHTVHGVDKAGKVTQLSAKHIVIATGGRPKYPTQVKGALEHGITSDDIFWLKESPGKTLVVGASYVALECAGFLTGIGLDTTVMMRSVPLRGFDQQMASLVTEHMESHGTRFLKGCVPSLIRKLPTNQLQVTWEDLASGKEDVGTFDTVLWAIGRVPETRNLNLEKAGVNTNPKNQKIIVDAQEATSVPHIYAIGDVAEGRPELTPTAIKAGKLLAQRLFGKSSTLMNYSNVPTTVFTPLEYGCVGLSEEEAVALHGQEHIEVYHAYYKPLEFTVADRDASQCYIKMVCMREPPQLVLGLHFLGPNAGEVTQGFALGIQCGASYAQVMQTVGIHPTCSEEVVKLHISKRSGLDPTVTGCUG

trans-[PtBr2(NHBz2)(PPh3)] [compound 2]
pIC50 [1]: 8.59

[NH2][Pt]([NH2])([Cl])[Cl] [cisplatin]
pIC50 [1]: 7.65
pIC50 [2]: 6.39

trans-[PtBr2(NHBzBu)(PPh3)] [compound 1]
pIC50 [1]: 8.64
